Values quoted from earlier work as cited in patent US20220265792A1, “METHODS FOR TREATING SOLID TUMORS” (Breakbio Corp., priority 2019, published 2022).

Columns and labels:
Renal Cell Carcinoma = conditions: human, in vivo
Treg cells = conditions: 50 mg bid seven days, seven days off, another seven days of 50 mg bid
mCRC patients = conditions: 20 μg/Kg/day for 14 days, 1 to 3 cycles

Question: Which “clinical effect as monotherapy” value (colorectal cancer) does the source give for `COc1cc2nccc(Oc3ccc(NC(=O)NC4CC4)c(Cl)c3)c2cc1C(N)=O` [Lenvatinib] here?
Answer: modest clinical effect

Question: With `CNC(=O)c1cc(Oc2ccc(NC(=O)Nc3ccc(Cl)c(C(F)(F)F)c3)c(F)c2)ccn1` [regorafenib] as the molecule, how does the “clinical activity as single agent” value (lung, pancreatic) read?
Answer: modest clinical activity

Question: Which “intra-tumoral T-cell infiltration” value (Renal Cell Carcinoma) does the source give for “Bevacizumab: monoclonal antibody binding circulating VEGF-A” here?
Answer: augmented intra-tumoral T-cell infiltration

Question: For `O=P1(N(CCCl)CCCl)NCCCO1` (racemic) [cyclophosphamide, (RS)—N,N-bis(2-chloroethyl)-1,3,2-oxazaphosphinan-2-amine 2-oxide], which “effect on Treg cells” value (Treg cells) is on record?
Answer: significantly depleted Treg cells

B1: FLT3L: FMS-like tyrosine kinase 3 ligand, expands and mobilizes antigen presenting cells (protein, UniProt P49771 27-235, looked up)
Fms-related tyrosine kinase 3 …: TQDCSFQHSPISSDFAVKIRELSDYLLQDYPVTVASNLQDEELCGGLWRLVLAQRWMERLKTVAGSKMQGLLERVNTEIHFVTKCAFQPPPSCLRFVQTNISRLLQETSEQLVALKPWITRQNFSRCLELQCQPDSSTLPPPWSPRPLEATAPTAPQPPLLLLLLLPVGLLLLAAAWCLHWQRTRRRTPRPGEQVPPVPSPQDLLLVEH
Question: With B1 as the molecule, how does the “number of APCs observed on the periphery of tumors” value (mCRC patients) read?
Answer: significantly increased

Question: And the “percentage of APCs in PBMCs” value (mCRC patients; from 2.4%)?
Answer: 8.8%

Question: And the “number of leukocytes in peripheral blood” value (mCRC patients; from 5,900/mm^3)?
Answer: 11,200 /mm^3
